Results taken from ChEMBL document CHEMBL4507285, “Data for DCP probe MRL-SYKi” (2021).

What was measured:
[1] = target: Mitogen-activated protein kinase kinase kinase 13 (Homo sapiens) (UniProt O43283); settings: Compound concentration 100.0 nM
[2] = target: Serine/threonine-protein kinase tousled-like 2 (Homo sapiens) (UniProt Q86UE8); settings: Compound concentration 100.0 nM
[3] = target: Calcium/calmodulin-dependent protein kinase type 1D (Homo sapiens) (UniProt Q8IU85); settings: Compound concentration 100.0 nM
[4] = target: Serine/threonine-protein kinase Chk1 (Homo sapiens) (UniProt O14757); settings: Compound concentration 100.0 nM
[5] = system: Leucine-rich repeat serine/threonine-protein kinase 2 (Homo sapiens), Q5S007 [G2019S]; settings: Compound concentration 100.0 nM
[6] = target: Maternal embryonic leucine zipper kinase (Homo sapiens) (UniProt Q14680); settings: Compound concentration 100.0 nM
[7] = target: Serine/threonine-protein kinase MAK (Homo sapiens) (UniProt P20794); settings: Compound concentration 100.0 nM
[8] = target: Serine/threonine-protein kinase PLK4 (Homo sapiens) (UniProt O00444); settings: Compound concentration 100.0 nM
[9] = system: Mast/stem cell growth factor receptor Kit (Homo sapiens), P10721 [A829P]; settings: Compound concentration 100.0 nM
[10] = target: Mitogen-activated protein kinase kinase kinase 14 (Homo sapiens) (UniProt Q99558); settings: Compound concentration 100.0 nM
[11] = target: Serine/threonine-protein kinase MARK2 (Homo sapiens) (UniProt Q7KZI7); settings: Compound concentration 100.0 nM
[12] = target: Sigma intracellular receptor 2 (Homo sapiens) (UniProt Q5BJF2); settings: Compound concentration 10.0 uM
[13] = target: SRSF protein kinase 3 (Homo sapiens) (UniProt Q9UPE1); settings: Compound concentration 100.0 nM
[14] = target: Dual specificity mitogen-activated protein kinase kinase 3 (Homo sapiens) (UniProt P46734); settings: Compound concentration 100.0 nM
[15] = system: Phosphatidylinositol 4,5-bisphosphate 3-kinase catalytic subunit alpha isoform (Homo sapiens), P42336 [I800L]; settings: Compound concentration 100.0 nM
[16] = target: Ribosomal protein S6 kinase alpha-6 (Homo sapiens) (UniProt Q9UK32); settings: Compound concentration 100.0 nM
[17] = target: Tyrosine-protein kinase receptor TYRO3 (Homo sapiens) (UniProt Q06418); settings: Compound concentration 100.0 nM
[18] = target: Mitogen-activated protein kinase kinase kinase 19 (Homo sapiens) (UniProt Q56UN5); settings: Compound concentration 100.0 nM
[19] = target: Wee1-like protein kinase 2 (Homo sapiens) (UniProt P0C1S8); settings: Compound concentration 100.0 nM
[20] = target: Mitogen-activated protein kinase 10 (Homo sapiens) (UniProt P53779); settings: Compound concentration 100.0 nM
[21] = target: Serine/threonine-protein kinase WNK1 (Homo sapiens) (UniProt Q9H4A3); settings: Compound concentration 100.0 nM
[22] = system: Epidermal growth factor receptor (Homo sapiens), P00533 [L858R]; settings: Compound concentration 100.0 nM
[23] = target: Serine/threonine-protein kinase OSR1 (Homo sapiens) (UniProt O95747); settings: Compound concentration 100.0 nM
[24] = system: Epidermal growth factor receptor (Homo sapiens), P00533 [G719S]; settings: Compound concentration 100.0 nM
[25] = target: STE20/SPS1-related proline-alanine-rich protein kinase (Homo sapiens) (UniProt Q9UEW8); settings: Compound concentration 100.0 nM
[26] = system: Hepatocyte growth factor receptor (Homo sapiens), P08581 [M1250T]; settings: Compound concentration 100.0 nM
[27] = system: Tyrosine-protein kinase ABL1 (Homo sapiens), P00519 [F317L]; settings: Compound concentration 100.0 nM
[28] = target: Platelet-derived growth factor receptor alpha (Homo sapiens) (UniProt P16234); settings: Compound concentration 100.0 nM
[29] = target: Mitogen-activated protein kinase 11 (Homo sapiens) (UniProt Q15759); settings: Compound concentration 100.0 nM
[30] = target: Vascular endothelial growth factor receptor 1 (Homo sapiens) (UniProt P17948); settings: Compound concentration 100.0 nM
[31] = target: Activin receptor type-1B (Homo sapiens) (UniProt P36896); settings: Compound concentration 100.0 nM
[32] = target: Serine/threonine-protein kinase PAK 5 (Homo sapiens) (UniProt Q9P286); settings: Compound concentration 100.0 nM
[33] = system: Receptor-type tyrosine-protein kinase FLT3 (Homo sapiens), P36888 [D835Y]; settings: Compound concentration 100.0 nM
[34] = target: Phosphatidylinositol 5-phosphate 4-kinase type-2 gamma (Homo sapiens) (UniProt Q8TBX8); settings: Compound concentration 100.0 nM
[35] = target: Tyrosine-protein kinase Lyn (Homo sapiens) (UniProt P07948); settings: Compound concentration 100.0 nM
[36] = target: NT-3 growth factor receptor (Homo sapiens, UniProt Q16288); settings: Compound concentration 100.0 nM
[37] = target: Calcium/calmodulin-dependent protein kinase type 1 (Homo sapiens) (UniProt Q14012); settings: Compound concentration 100.0 nM
[38] = target: Ephrin type-B receptor 3 (Homo sapiens) (UniProt P54753); settings: Compound concentration 100.0 nM
[39] = target: Protein-tyrosine kinase 6 (Homo sapiens) (UniProt Q13882); settings: Compound concentration 100.0 nM
[40] = target: Mu-type opioid receptor (Homo sapiens) (UniProt P35372); settings: Compound concentration 10.0 uM
[41] = target: Activated CDC42 kinase 1 (Homo sapiens) (UniProt Q07912); settings: Compound concentration 100.0 nM
[42] = system: Phosphatidylinositol 4,5-bisphosphate 3-kinase catalytic subunit alpha isoform (Homo sapiens), P42336 [M1043I]; settings: Compound concentration 100.0 nM
[43] = target: Cytoplasmic tyrosine-protein kinase BMX (Homo sapiens) (UniProt P51813); settings: Compound concentration 100.0 nM
[44] = target: Serine/threonine-protein kinase LATS1 (Homo sapiens) (UniProt O95835); settings: Compound concentration 100.0 nM
[45] = target: Phosphorylase b kinase gamma catalytic chain, skeletal muscle/heart isoform (Homo sapiens) (UniProt Q16816); settings: Compound concentration 100.0 nM

Sequence of Vascular endothelial growth factor receptor 1 (Homo sapiens) (P17948 whole entry): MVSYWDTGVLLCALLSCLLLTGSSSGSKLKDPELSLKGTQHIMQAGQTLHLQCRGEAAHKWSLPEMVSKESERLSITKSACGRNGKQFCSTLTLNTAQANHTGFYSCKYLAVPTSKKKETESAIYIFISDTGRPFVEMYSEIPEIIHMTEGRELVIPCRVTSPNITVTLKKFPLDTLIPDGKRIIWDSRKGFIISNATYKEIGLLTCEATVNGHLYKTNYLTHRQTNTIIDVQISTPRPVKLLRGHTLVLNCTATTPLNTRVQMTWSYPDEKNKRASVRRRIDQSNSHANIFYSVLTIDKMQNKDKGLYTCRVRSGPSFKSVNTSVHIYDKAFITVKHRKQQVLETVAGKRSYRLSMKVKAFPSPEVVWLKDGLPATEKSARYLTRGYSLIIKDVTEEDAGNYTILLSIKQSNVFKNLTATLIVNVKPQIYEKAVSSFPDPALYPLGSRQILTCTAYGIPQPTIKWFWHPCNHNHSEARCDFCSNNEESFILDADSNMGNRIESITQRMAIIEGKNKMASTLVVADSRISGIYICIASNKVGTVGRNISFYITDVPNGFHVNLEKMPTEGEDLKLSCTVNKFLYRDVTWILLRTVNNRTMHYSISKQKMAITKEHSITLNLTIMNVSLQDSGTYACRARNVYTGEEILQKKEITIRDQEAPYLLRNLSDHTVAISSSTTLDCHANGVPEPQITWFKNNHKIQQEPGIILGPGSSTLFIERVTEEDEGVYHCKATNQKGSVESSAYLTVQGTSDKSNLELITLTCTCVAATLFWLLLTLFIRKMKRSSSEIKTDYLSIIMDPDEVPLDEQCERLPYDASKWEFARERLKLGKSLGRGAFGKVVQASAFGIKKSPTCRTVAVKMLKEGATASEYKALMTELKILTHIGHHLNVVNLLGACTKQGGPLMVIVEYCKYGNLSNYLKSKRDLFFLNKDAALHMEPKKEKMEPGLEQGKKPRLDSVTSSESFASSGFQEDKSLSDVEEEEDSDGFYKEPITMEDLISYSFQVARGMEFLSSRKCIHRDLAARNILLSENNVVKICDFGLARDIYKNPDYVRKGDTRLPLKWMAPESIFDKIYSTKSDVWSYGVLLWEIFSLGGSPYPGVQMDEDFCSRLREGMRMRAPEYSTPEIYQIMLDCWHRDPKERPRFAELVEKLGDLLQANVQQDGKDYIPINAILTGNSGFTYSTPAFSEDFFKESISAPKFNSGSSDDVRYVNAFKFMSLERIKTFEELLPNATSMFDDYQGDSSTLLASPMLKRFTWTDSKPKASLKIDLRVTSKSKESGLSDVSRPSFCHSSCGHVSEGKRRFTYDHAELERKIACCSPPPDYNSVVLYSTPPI
Sequence of Mitogen-activated protein kinase 10 (Homo sapiens) (P53779 whole entry): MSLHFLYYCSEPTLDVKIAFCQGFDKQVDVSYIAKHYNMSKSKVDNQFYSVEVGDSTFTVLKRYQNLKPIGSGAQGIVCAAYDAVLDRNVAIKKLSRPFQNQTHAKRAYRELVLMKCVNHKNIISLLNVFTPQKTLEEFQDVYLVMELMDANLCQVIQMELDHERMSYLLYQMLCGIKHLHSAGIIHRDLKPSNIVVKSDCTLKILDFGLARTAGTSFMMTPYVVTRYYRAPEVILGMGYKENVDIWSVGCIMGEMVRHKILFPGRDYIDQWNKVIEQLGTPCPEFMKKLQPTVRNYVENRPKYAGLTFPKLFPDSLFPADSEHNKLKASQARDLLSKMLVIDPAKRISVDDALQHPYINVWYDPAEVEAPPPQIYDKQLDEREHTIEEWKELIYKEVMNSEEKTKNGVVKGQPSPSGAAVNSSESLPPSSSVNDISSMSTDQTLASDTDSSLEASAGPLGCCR
Sequence of Cytoplasmic tyrosine-protein kinase BMX (Homo sapiens) (P51813 whole entry): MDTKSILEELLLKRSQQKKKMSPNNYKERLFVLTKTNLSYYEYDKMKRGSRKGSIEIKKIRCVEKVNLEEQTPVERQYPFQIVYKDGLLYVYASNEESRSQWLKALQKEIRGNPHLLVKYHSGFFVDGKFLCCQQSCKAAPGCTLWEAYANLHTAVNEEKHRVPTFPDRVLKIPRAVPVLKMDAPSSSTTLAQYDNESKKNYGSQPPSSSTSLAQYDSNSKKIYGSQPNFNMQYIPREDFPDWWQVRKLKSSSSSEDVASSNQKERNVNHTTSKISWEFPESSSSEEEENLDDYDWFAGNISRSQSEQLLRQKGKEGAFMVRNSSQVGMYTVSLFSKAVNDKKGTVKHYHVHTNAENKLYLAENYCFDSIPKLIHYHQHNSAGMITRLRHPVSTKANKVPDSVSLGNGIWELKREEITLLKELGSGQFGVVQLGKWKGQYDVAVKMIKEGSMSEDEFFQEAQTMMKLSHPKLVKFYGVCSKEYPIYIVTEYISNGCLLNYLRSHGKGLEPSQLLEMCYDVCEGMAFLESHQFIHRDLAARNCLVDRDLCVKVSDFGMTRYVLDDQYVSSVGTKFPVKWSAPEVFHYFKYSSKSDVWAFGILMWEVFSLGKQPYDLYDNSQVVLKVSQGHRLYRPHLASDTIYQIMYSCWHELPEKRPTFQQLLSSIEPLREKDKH
Sequence of Activated CDC42 kinase 1 (Homo sapiens) (Q07912 whole entry, looked up, canonical isoform): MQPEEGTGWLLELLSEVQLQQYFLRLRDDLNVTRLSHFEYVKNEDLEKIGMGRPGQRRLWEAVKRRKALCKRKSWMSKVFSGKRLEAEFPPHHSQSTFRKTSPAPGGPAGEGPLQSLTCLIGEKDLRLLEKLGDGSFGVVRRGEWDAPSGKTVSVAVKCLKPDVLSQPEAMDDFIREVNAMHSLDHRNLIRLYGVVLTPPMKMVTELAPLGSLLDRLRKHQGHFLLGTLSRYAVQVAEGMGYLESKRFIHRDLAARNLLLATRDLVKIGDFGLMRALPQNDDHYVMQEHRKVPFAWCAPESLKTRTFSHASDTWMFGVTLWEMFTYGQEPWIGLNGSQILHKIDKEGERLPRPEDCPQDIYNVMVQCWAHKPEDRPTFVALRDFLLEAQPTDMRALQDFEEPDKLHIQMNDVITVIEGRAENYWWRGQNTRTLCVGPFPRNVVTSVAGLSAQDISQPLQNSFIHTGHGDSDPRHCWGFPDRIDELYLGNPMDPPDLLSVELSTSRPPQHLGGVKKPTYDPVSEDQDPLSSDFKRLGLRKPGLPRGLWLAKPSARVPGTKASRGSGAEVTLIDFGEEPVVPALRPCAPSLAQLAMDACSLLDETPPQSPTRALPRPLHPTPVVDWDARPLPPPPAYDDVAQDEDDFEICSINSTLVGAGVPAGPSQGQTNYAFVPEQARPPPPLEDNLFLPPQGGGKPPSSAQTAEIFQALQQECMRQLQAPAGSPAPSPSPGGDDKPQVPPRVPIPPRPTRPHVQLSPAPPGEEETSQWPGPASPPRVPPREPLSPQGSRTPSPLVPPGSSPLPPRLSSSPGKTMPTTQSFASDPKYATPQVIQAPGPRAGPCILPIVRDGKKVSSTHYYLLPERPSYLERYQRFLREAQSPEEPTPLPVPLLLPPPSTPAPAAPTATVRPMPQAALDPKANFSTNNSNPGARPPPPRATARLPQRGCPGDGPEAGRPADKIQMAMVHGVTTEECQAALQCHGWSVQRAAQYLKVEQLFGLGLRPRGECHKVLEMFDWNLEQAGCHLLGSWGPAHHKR
Sequence of Serine/threonine-protein kinase PLK4 (Homo sapiens) (O00444 whole entry): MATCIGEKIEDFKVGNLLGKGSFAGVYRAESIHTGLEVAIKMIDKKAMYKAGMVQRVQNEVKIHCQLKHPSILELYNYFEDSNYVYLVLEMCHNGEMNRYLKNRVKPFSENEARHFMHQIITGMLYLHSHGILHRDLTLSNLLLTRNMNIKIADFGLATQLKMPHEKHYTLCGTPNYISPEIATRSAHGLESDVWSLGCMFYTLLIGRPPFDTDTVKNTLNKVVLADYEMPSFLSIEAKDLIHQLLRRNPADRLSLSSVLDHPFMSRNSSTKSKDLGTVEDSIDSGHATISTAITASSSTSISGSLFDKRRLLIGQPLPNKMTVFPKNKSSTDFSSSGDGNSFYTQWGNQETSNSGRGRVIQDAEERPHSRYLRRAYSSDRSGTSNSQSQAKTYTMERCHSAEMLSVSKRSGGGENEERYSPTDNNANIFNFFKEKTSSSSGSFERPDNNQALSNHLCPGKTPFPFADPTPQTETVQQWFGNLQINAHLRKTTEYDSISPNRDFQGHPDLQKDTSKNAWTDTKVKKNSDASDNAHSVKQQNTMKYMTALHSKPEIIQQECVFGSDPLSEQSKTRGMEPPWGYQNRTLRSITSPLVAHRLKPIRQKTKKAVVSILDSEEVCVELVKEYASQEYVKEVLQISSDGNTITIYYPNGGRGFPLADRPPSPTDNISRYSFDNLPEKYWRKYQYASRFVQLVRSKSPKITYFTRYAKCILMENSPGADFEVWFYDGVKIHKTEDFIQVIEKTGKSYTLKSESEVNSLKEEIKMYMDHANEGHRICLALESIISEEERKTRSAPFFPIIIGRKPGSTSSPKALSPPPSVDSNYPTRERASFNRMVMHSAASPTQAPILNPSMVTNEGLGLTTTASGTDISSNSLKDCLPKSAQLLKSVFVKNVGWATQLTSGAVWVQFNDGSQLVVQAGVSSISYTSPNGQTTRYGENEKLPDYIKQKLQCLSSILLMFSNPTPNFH
Sequence of Protein-tyrosine kinase 6 (Homo sapiens) (Q13882 whole entry, looked up): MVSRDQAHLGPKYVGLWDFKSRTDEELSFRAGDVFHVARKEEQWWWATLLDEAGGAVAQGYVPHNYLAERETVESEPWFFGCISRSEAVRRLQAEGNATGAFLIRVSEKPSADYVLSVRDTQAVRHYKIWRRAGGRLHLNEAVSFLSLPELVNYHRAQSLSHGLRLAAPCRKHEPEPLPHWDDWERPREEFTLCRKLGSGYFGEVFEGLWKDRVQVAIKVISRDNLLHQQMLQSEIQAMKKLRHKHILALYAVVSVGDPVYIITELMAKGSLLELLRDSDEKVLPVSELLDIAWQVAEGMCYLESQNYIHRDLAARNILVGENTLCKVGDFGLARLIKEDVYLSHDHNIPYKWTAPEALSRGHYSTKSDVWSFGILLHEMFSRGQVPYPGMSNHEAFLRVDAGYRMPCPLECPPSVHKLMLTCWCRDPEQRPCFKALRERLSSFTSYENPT

Cc1ccc(-c2cnc([C@@]3(O)CC[C@H](C(=O)O)C(C)(C)C3)s2)cc1Nc1cccc(C(F)(F)F)n1 [MRL-SYKi-NC]
residual activity [1]: 100% | residual activity [2]: 89.9% | residual activity [3]: 89.6% | residual activity [4]: 100% | residual activity [5]: 64.9% | residual activity [6]: 100% | residual activity [7]: 93.9% | residual activity [8]: 56.5% | residual activity [9]: 61.5% | residual activity [10]: 100% | residual activity [11]: 100% | inhibition [12]: 27.4% | residual activity [13]: 100% | residual activity [14]: 90% | residual activity [15]: 76.7% | residual activity [16]: 100% | residual activity [17]: 100% | residual activity [18]: 100% | residual activity [19]: 89.5% | residual activity [20]: 37.5% | residual activity [21]: 100% | residual activity [22]: 76.6% | residual activity [23]: 69.9% | residual activity [24]: 99.3% | residual activity [25]: 100% | residual activity [26]: 89% | residual activity [27]: 84.4% | residual activity [28]: 92.6% | residual activity [29]: 98.7% | residual activity [30]: 97.7% | residual activity [31]: 100% | residual activity [32]: 96% | residual activity [33]: 94.1% | residual activity [34]: 97.5% | residual activity [35]: 100% | residual activity [36]: 80% | residual activity [37]: 75.3% | residual activity [38]: 100% | residual activity [39]: 100% | inhibition [40]: 8.33% | residual activity [41]: 100% | residual activity [42]: 90.4% | residual activity [43]: 100% | residual activity [44]: 100% | residual activity [45]: 100%

Cc1cc(Nc2nccc(C)n2)cc(-c2cnc([C@@]3(O)CC[C@H](C(=O)O)C(C)(C)C3)s2)c1 [MRL-SYKi]
residual activity [1]: 100% | residual activity [2]: 100% | residual activity [3]: 97.1% | residual activity [4]: 100% | residual activity [5]: 92.3% | residual activity [6]: 88% | residual activity [7]: 73.8% | residual activity [8]: 100% | residual activity [9]: 100% | residual activity [10]: 89% | residual activity [11]: 100% | inhibition [12]: 33.5% | residual activity [13]: 100% | residual activity [14]: 29.5% | residual activity [15]: 95.1% | residual activity [16]: 77.2% | residual activity [17]: 60.2% | residual activity [18]: 100% | residual activity [19]: 100% | residual activity [20]: 67.7% | residual activity [21]: 100% | residual activity [22]: 75.3% | residual activity [23]: 79.9% | residual activity [24]: 100% | residual activity [25]: 81.8% | residual activity [26]: 93.7% | residual activity [27]: 69.6% | residual activity [28]: 100% | residual activity [29]: 100% | residual activity [30]: 100% | residual activity [31]: 92.7% | residual activity [32]: 100% | residual activity [33]: 83.4% | residual activity [34]: 91.9% | residual activity [35]: 100% | residual activity [36]: 82.6% | residual activity [37]: 99.3% | residual activity [38]: 100% | residual activity [39]: 100% | inhibition [40]: 17.3% | residual activity [41]: 100% | residual activity [42]: 61.8% | residual activity [43]: 95.1% | residual activity [44]: 100% | residual activity [45]: 100%
